According to PMC8296573, “Synthesis and Biological Evaluation of Fingolimod Derivatives as Antibacterial Agents” (ACS Omega, 2021):
Values after ≈ are worked out from the molar mass of the structure shown. Where two headings read alike, the source gives them in different places.

Legend:
[1] = tested on: S. aureus ATCC 25923; experiment: Antibacterial activity, pre-exposure (planktonic cells and biofilm formation); format: cell-based, Staphylococcus aureus; details: for MIC / inhibition at 5 µM / inhibition at 10 µM / inhibition at 15 µM / inhibition at 25 µM: Staphylococcus aureus, ATCC25923; for inhibition at 5 µM / inhibition at 10 µM / inhibition at 15 µM / inhibition at 25 µM / Average inhibition %, biofilms viability / Average inhibition %, planktonic cells viability: pre-exposure, ± SD
Outline: (§1)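 Bacteria and compound were co-incubated from the start for 18 h at 37 °C, 220 rpm. Planktonic cells scored by turbidity plus resazurin reduction; washed biofilms scored by 20 μM resazurin (30, 60, 90 min for S. aureus, A. baumannii, P. aeruginosa) and ethanol-fixed crystal violet staining.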

[2] = tested on: A. baumannii NCTC 13423; experiment: Antibacterial activity, pre-exposure; format: cell-based, Acinetobacter baumannii; details: for Average inhibition %, biofilms viability / Average inhibition %, planktonic cells viability / inhibition at 10 µM / inhibition at 15 µM / inhibition at 25 µM / inhibition at 50 µM: A. baumannii NCTC 13423, pre-exposure, ± SD; for inhibition at 10 µM / inhibition at 15 µM / inhibition at 25 µM / inhibition at 50 µM: Acinetobacter baumannii, NCTC13423
Outline: as §1

[3] = tested on: P. aeruginosa ATCC 9027; experiment: Antibacterial activity, pre-exposure; format: cell-based, Pseudomonas aeruginosa; details: for Average inhibition %, biofilms viability / Average inhibition %, planktonic cells viability / inhibition at 50 µM / inhibition at 100 µM / inhibition at 150 µM / inhibition at 200 µM: P. aeruginosa ATCC 9027, pre-exposure, ± SD; for inhibition at 50 µM / inhibition at 100 µM / inhibition at 150 µM / inhibition at 200 µM: Pseudomonas aeruginosa, ATCC9027
Outline: as §1

[4] = tested on: S. aureus ATCC 25923; experiment: Antibacterial activity, post-exposure on preformed 18-h-old biofilms; format: cell-based, Staphylococcus aureus; details: ± SD; for inhibition at 25 µM / inhibition at 50 µM / inhibition at 100 µM / inhibition at 200 µM: Staphylococcus aureus; for inhibition at 25 µM: ATCC25923, 25 µM; for inhibition at 50 µM: ATCC25923, 50 µM; for inhibition at 100 µM: ATCC25923, 100 µM; for inhibition at 200 µM: ATCC25923, 200 µM
Outline: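 Compounds were applied to preformed 18-h biofilms after medium change and left 24 h. Read-outs: planktonic OD plus resazurin fluorescence (20 μM), biofilm metabolic activity by resazurin 30 min at 37 °C, then biomass by crystal violet absorbance at 595 nm after ethanol fixation.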

[5] = 10 µM, read-out: Average inhibition %, biofilms biomass
[6] = 10 µM, read-out: Average inhibition %, planktonic cells turbidity
[7] = 15 µM, read-out: Average inhibition %, biofilms biomass
[8] = 15 µM, read-out: Average inhibition %, planktonic cells turbidity
[9] = 25 µM, read-out: Average inhibition %, biofilms biomass
[10] = 25 µM, read-out: Average inhibition %, planktonic cells turbidity
[11] = 50 µM, read-out: Average inhibition %, biofilms biomass
[12] = 50 µM, read-out: Average inhibition %, planktonic cells turbidity
[13] = read-out: Average inhibition %, biofilms biomass
[14] = read-out: Average inhibition %, planktonic cells turbidity

CCCCCCCCCCc1ccc2nc(CCC(N)(CO)CO)ccc2c1 [Compound 81, 2-Amino-2-[2-(6-decylquinolin-2-yl)ethyl]propane-1,3-diol]
MIC ([1]; lowest concentration with no visible growth (>90% inhibition of turbidity and viability of planktonic cells), 18 h, read-out: MIC S. aureus ATCC 25923): 10 to 15 µM (≈ 3.87 to 5.8 µg/mL) | inhibition at 5 µM ([1]; 5 µM, read-out: Average inhibition %, biofilms biomass): 28.1 ± 33.9% | inhibition at 5 µM ([1]; 5 µM, read-out: Average inhibition %, planktonic cells turbidity): 33.4 ± 30.9% | inhibition at 10 µM [1, 5]: 66 ± 27.6% | inhibition at 10 µM [1, 6]: 57.3 ± 36.4% | inhibition at 15 µM [1, 7]: 98.4 ± 0.3% | inhibition at 15 µM [1, 8]: 99.3 ± 0.2% | inhibition at 25 µM [1, 9]: 97.3 ± 0.1% | inhibition at 25 µM [1, 10]: 98.6 ± 0.3% | MIC ([1]; read-out: MIC (S. aureus)): 10 to 15 µM (≈ 3.87 to 5.8 µg/mL) | Average inhibition %, biofilms viability ([1]; 5 µM): 28.3 ± 16.5% | Average inhibition %, planktonic cells viability ([1]; 5 µM): 23.5 ± 26.1% | Average inhibition %, biofilms viability ([1]; 10 µM): 64 ± 29.7% | Average inhibition %, planktonic cells viability ([1]; 10 µM): 33.9 ± 57% | Average inhibition %, biofilms viability ([1]; 15 µM): 99.1 ± 1% | Average inhibition %, planktonic cells viability ([1]; 15 µM): 99.7 ± 0% | Average inhibition %, biofilms viability ([1]; 25 µM): 99.1 ± 1.4% | Average inhibition %, planktonic cells viability ([1]; 25 µM): 99.7 ± 0.1% | Average inhibition %, biofilms viability ([2]; 10 µM): 0 ± 0% | Average inhibition %, planktonic cells viability ([2]; 10 µM): 7.5 ± 7.6% | Average inhibition %, biofilms viability ([2]; 15 µM): 0 ± 0% | Average inhibition %, planktonic cells viability ([2]; 15 µM): 5.8 ± 6.2% | Average inhibition %, biofilms viability ([2]; 25 µM): 0 ± 0% | Average inhibition %, planktonic cells viability ([2]; 25 µM): 2.6 ± 2.1% | Average inhibition %, biofilms viability ([2]; 50 µM): 0.8 ± 1.4% | Average inhibition %, planktonic cells viability ([2]; 50 µM): 2.6 ± 3.8% | inhibition at 10 µM [2, 5]: 0% | inhibition at 10 µM [2, 6]: 0.2 ± 0.5% | inhibition at 15 µM [2, 7]: 2.1 ± 3.6% | inhibition at 15 µM [2, 8]: 0% | inhibition at 25 µM [2, 9]: 3.6 ± 6.2% | inhibition at 25 µM [2, 10]: 0% | inhibition at 50 µM [2, 11]: 5.6 ± 5.9% | inhibition at 50 µM [2, 12]: 0.5 ± 0.9% | MIC A. baumannii NCTC 13423 ([2]; pre-exposure, Inactive = no activity up to 50 μM, > = some inhibition but no MIC reached): Inactive | Average inhibition %, biofilms viability ([3]; 50 µM): 4.9 ± 5.2% | Average inhibition %, planktonic cells viability ([3]; 50 µM): 10.9 ± 9.5% | Average inhibition %, biofilms viability ([3]; 100 µM): 3.8 ± 4.9% | Average inhibition %, planktonic cells viability ([3]; 100 µM): 20.3 ± 12.9% | Average inhibition %, biofilms viability ([3]; 150 µM): 7.9 ± 11.7% | Average inhibition %, planktonic cells viability ([3]; 150 µM): 16.3 ± 5.7% | Average inhibition %, biofilms viability ([3]; 200 µM): 0.3 ± 0.5% | Average inhibition %, planktonic cells viability ([3]; 200 µM): 17 ± 16.2% | inhibition at 50 µM [3, 11]: 3.6 ± 4.6% | inhibition at 50 µM [3, 12]: 29.2 ± 5.8% | inhibition at 100 µM ([3]; 100 µM, read-out: Average inhibition %, biofilms biomass): 0% | inhibition at 100 µM ([3]; 100 µM, read-out: Average inhibition %, planktonic cells turbidity): 41.2 ± 11.2% | inhibition at 150 µM ([3]; 150 µM, read-out: Average inhibition %, biofilms biomass): 4 ± 7% | inhibition at 150 µM ([3]; 150 µM, read-out: Average inhibition %, planktonic cells turbidity): 38.2 ± 12.2% | inhibition at 200 µM ([3]; 200 µM, read-out: Average inhibition %, biofilms biomass): 0.7 ± 0.6% | inhibition at 200 µM ([3]; 200 µM, read-out: Average inhibition %, planktonic cells turbidity): 30.5 ± 8.3% | MIC P. aeruginosa ATCC 9027 ([3]; pre-exposure, Inactive = no activity up to 200 μM, > = some inhibition but no MIC reached): Inactive | Average inhibition %, biofilms viability ([4]; 25 µM): 6.4 ± 8.2% | Average inhibition %, planktonic cells viability ([4]; 25 µM): 8.8 ± 7.7% | Average inhibition %, biofilms viability ([4]; 50 µM): 18.3 ± 16.6% | Average inhibition %, planktonic cells viability ([4]; 50 µM): 6.9 ± 10.4% | Average inhibition %, biofilms viability ([4]; 100 µM): 20.9 ± 18.1% | Average inhibition %, planktonic cells viability ([4]; 100 µM): 28.8 ± 17.2% | Average inhibition %, biofilms viability ([4]; 200 µM): 20.1 ± 16% | Average inhibition %, planktonic cells viability ([4]; 200 µM): 7.8 ± 11.1% | inhibition at 25 µM [4, 13]: 9.7 ± 8.6% | inhibition at 25 µM [4, 14]: 22.7 ± 32.9% | inhibition at 50 µM [4, 13]: 28.5 ± 12.5% | inhibition at 50 µM [4, 14]: 10 ± 17.4% | inhibition at 100 µM [4, 13]: 34.6 ± 8.2% | inhibition at 100 µM [4, 14]: 19 ± 22.4% | inhibition at 200 µM [4, 13]: 25 ± 11.6% | inhibition at 200 µM [4, 14]: 11.2 ± 16.9%
